Results reported in the supplement of paper PMC10307832.

How the values were obtained:
Experiment in all cases: relative viability (nuclei count vs DMSO), 5 days (fraction); higher = more cells survive
[1] = compound: C[C@@H](N)c1ccc(C(=O)Nc2ccnc3[nH]ccc23)cc1 + CS(=O)(=O)CCNCc1ccc(-c2ccc3ncnc(Nc4ccc(OCc5cccc(F)c5)c(Cl)c4)c3c2)o1 [Lapatinib] (partner 2 µM)
In short: (§1)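 For relative viability, nuclei counts in treated wells were divided by those in vehicle wells. Lung cancer cell lines had been pin-tool dosed in 1536-well plates the day after seeding and cultured for 5 days, then fixed and stained in one step (final 0.05% Triton X-100, 1% formaldehyde, 1 ug/ml Hoechst) and imaged at 4×. Doses were one drug alone or a fixed anchor-drug dose plus five library-drug doses (not always all listed) in √10 steps, and values are duplicate-plate medians.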

[2] = compound: C[C@@H](N)c1ccc(C(=O)Nc2ccnc3[nH]ccc23)cc1 + Cc1nc(Nc2ncc(C(=O)Nc3c(C)cccc3Cl)s2)cc(N2CCN(CCO)CC2)n1 [Dasatinib] (partner 0.075 µM)
In short: as §1

[3] = compound: C[C@@H](N)c1ccc(C(=O)Nc2ccnc3[nH]ccc23)cc1 + CC(=O)Nc1cccc(-n2c(=O)n(C3CC3)c(=O)c3c(Nc4ccc(I)cc4F)n(C)c(=O)c(C)c32)c1 [Trametinib] (partner 0.02 µM)
In short: as §1

[4] = compound: C1CNCCC1C2=CC(=NN2)C3=CC=NC=C3 + CS(=O)(=O)CCNCc1ccc(-c2ccc3ncnc(Nc4ccc(OCc5cccc(F)c5)c(Cl)c4)c3c2)o1 [Lapatinib] (partner 2 µM)
In short: as §1

EKVX showed a relative viability ([1]; first compound 0.04 µM) of 0.223, a relative viability ([1]; first compound 0.1265 µM) of 0.224 and a relative viability ([1]; first compound 0.4 µM) of 0.242. It also gave a relative viability ([1]; first compound 1.265 µM) of 0.224, a relative viability ([1]; first compound 4 µM) of 0.215 and a relative viability ([2]; first compound 0.04 µM) of 0.624. For the same cell line, the relative viability ([2]; first compound 0.1265 µM) was 0.533, the relative viability ([2]; first compound 0.4 µM) was 0.561 and the relative viability ([2]; first compound 1.265 µM) was 0.248. The relative viability ([2]; first compound 4 µM) was 0.455, the relative viability ([3]; first compound 0.04 µM) was 0.482 and the relative viability ([3]; first compound 0.1265 µM) was 0.446. It also gave a relative viability ([3]; first compound 0.4 µM) of 0.396, a relative viability ([3]; first compound 1.265 µM) of 0.556 and a relative viability ([3]; first compound 4 µM) of 0.22. The relative viability ([4]; first compound 0.08 µM) was 0.211, the relative viability ([4]; first compound 0.8 µM) was 0.184 and the relative viability ([4]; first compound 2.53 µM) was 0.208. The relative viability ([4]; first compound 8 µM) was 0.208.

Work on NCI-H520 yielded a relative viability ([1]; first compound 0.04 µM) of 1.08, a relative viability ([1]; first compound 0.1265 µM) of 0.953 and a relative viability ([1]; first compound 0.4 µM) of 0.949. For the same cell line, the relative viability ([1]; first compound 1.265 µM) was 0.742, the relative viability ([1]; first compound 4 µM) was 1.03 and the relative viability ([2]; first compound 0.04 µM) was 0.212. The relative viability ([2]; first compound 0.1265 µM) was 0.205, the relative viability ([2]; first compound 0.4 µM) was 0.181 and the relative viability ([2]; first compound 1.265 µM) was 0.219. It also gave a relative viability ([2]; first compound 4 µM) of 0.196, a relative viability ([3]; first compound 0.04 µM) of 0.915 and a relative viability ([3]; first compound 0.1265 µM) of 0.73. For the same cell line, the relative viability ([3]; first compound 0.4 µM) was 0.697, the relative viability ([3]; first compound 1.265 µM) was 0.891 and the relative viability ([3]; first compound 4 µM) was 0.719. For the same cell line, the relative viability ([4]; first compound 0.08 µM) was 0.763, the relative viability ([4]; first compound 0.8 µM) was 0.897 and the relative viability ([4]; first compound 2.53 µM) was 0.92. For the same cell line, the relative viability ([4]; first compound 8 µM) was 0.835.

Work on LCLC-97TM1 yielded a relative viability ([1]; first compound 0.04 µM) of 1.53, a relative viability ([1]; first compound 0.1265 µM) of 1.45 and a relative viability ([1]; first compound 0.4 µM) of 1.65. For the same cell line, the relative viability ([1]; first compound 1.265 µM) was 0.83, the relative viability ([1]; first compound 4 µM) was 1.36 and the relative viability ([2]; first compound 0.04 µM) was 0.989. For the same cell line, the relative viability ([2]; first compound 0.1265 µM) was 0.905, the relative viability ([2]; first compound 0.4 µM) was 0.984 and the relative viability ([2]; first compound 1.265 µM) was 0.879. The relative viability ([2]; first compound 4 µM) was 0.794, the relative viability ([3]; first compound 0.04 µM) was 0.211 and the relative viability ([3]; first compound 0.1265 µM) was 0.193. For the same cell line, the relative viability ([3]; first compound 0.4 µM) was 0.227, the relative viability ([3]; first compound 1.265 µM) was 0.259 and the relative viability ([3]; first compound 4 µM) was 0.18. For the same cell line, the relative viability ([4]; first compound 0.08 µM) was 1.05, the relative viability ([4]; first compound 0.8 µM) was 1.39 and the relative viability ([4]; first compound 2.53 µM) was 1.59. The relative viability ([4]; first compound 8 µM) was 1.04.

Work on NCI-H2170 yielded a relative viability ([1]; first compound 0.04 µM) of 0.28, a relative viability ([1]; first compound 0.1265 µM) of 0.273 and a relative viability ([1]; first compound 0.4 µM) of 0.302. It also gave a relative viability ([1]; first compound 1.265 µM) of 0.323, a relative viability ([1]; first compound 4 µM) of 0.26 and a relative viability ([2]; first compound 0.04 µM) of 0.774. The relative viability ([2]; first compound 0.1265 µM) was 0.595, the relative viability ([2]; first compound 0.4 µM) was 0.639 and the relative viability ([2]; first compound 1.265 µM) was 0.518. For the same cell line, the relative viability ([2]; first compound 4 µM) was 0.528, the relative viability ([3]; first compound 0.04 µM) was 0.959 and the relative viability ([3]; first compound 0.1265 µM) was 0.944. It also gave a relative viability ([3]; first compound 0.4 µM) of 0.926, a relative viability ([3]; first compound 1.265 µM) of 0.999 and a relative viability ([3]; first compound 4 µM) of 0.939. It also gave a relative viability ([4]; first compound 0.08 µM) of 0.247, a relative viability ([4]; first compound 0.8 µM) of 0.28 and a relative viability ([4]; first compound 2.53 µM) of 0.269. It also gave a relative viability ([4]; first compound 8 µM) of 0.291.

For NCI-H1793, the relative viability ([1]; first compound 0.04 µM) was 0.828, the relative viability ([1]; first compound 0.1265 µM) was 0.564 and the relative viability ([1]; first compound 0.4 µM) was 0.907. The relative viability ([1]; first compound 4 µM) was 0.888, the relative viability ([2]; first compound 0.04 µM) was 0.308 and the relative viability ([2]; first compound 0.1265 µM) was 0.419. For the same cell line, the relative viability ([2]; first compound 0.4 µM) was 0.418, the relative viability ([2]; first compound 4 µM) was 0.298 and the relative viability ([3]; first compound 0.04 µM) was 0.46. The relative viability ([3]; first compound 0.1265 µM) was 0.442, the relative viability ([3]; first compound 0.4 µM) was 0.452 and the relative viability ([3]; first compound 4 µM) was 0.61. The relative viability ([4]; first compound 0.08 µM) was 0.581, the relative viability ([4]; first compound 0.8 µM) was 0.725 and the relative viability ([4]; first compound 2.53 µM) was 0.644. It also gave a relative viability ([4]; first compound 8 µM) of 0.666.

NCI-H3122 showed a relative viability ([1]; first compound 0.04 µM) of 0.966, a relative viability ([1]; first compound 0.1265 µM) of 1.04 and a relative viability ([1]; first compound 0.4 µM) of 1.08. It also gave a relative viability ([1]; first compound 1.265 µM) of 0.875, a relative viability ([1]; first compound 4 µM) of 0.981 and a relative viability ([2]; first compound 0.04 µM) of 1.06. For the same cell line, the relative viability ([2]; first compound 0.1265 µM) was 0.882, the relative viability ([2]; first compound 0.4 µM) was 0.919 and the relative viability ([2]; first compound 1.265 µM) was 0.455. It also gave a relative viability ([2]; first compound 4 µM) of 0.915, a relative viability ([3]; first compound 0.04 µM) of 0.231 and a relative viability ([3]; first compound 0.1265 µM) of 0.229. For the same cell line, the relative viability ([3]; first compound 0.4 µM) was 0.223, the relative viability ([3]; first compound 1.265 µM) was 0.26 and the relative viability ([3]; first compound 4 µM) was 0.234. The relative viability ([4]; first compound 0.08 µM) was 0.972, the relative viability ([4]; first compound 0.8 µM) was 1.03 and the relative viability ([4]; first compound 2.53 µM) was 1.04. The relative viability ([4]; first compound 8 µM) was 1.04.

PC-14 showed a relative viability ([1]; first compound 0.04 µM) of 0.292, a relative viability ([1]; first compound 0.1265 µM) of 0.344 and a relative viability ([1]; first compound 0.4 µM) of 0.295. For the same cell line, the relative viability ([1]; first compound 1.265 µM) was 0.271, the relative viability ([1]; first compound 4 µM) was 0.329 and the relative viability ([2]; first compound 0.04 µM) was 0.216. The relative viability ([2]; first compound 0.1265 µM) was 0.29, the relative viability ([2]; first compound 0.4 µM) was 0.246 and the relative viability ([2]; first compound 1.265 µM) was 0.206. It also gave a relative viability ([2]; first compound 4 µM) of 0.131, a relative viability ([3]; first compound 0.04 µM) of 0.736 and a relative viability ([3]; first compound 0.1265 µM) of 0.656. The relative viability ([3]; first compound 0.4 µM) was 0.497, the relative viability ([3]; first compound 4 µM) was 0.431 and the relative viability ([4]; first compound 0.08 µM) was 0.348. The relative viability ([4]; first compound 0.8 µM) was 0.304, the relative viability ([4]; first compound 2.53 µM) was 0.318 and the relative viability ([4]; first compound 8 µM) was 0.38.

EPLC-272H was tested, and the relative viability ([1]; first compound 0.04 µM) was 1, the relative viability ([1]; first compound 0.1265 µM) was 0.914 and the relative viability ([1]; first compound 0.4 µM) was 1.1. The relative viability ([1]; first compound 4 µM) was 0.668, the relative viability ([2]; first compound 0.04 µM) was 0.43 and the relative viability ([2]; first compound 0.1265 µM) was 0.278. The relative viability ([2]; first compound 0.4 µM) was 0.32, the relative viability ([2]; first compound 1.265 µM) was 0.211 and the relative viability ([2]; first compound 4 µM) was 0.182. It also gave a relative viability ([3]; first compound 0.04 µM) of 0.299, a relative viability ([3]; first compound 0.1265 µM) of 0.283 and a relative viability ([3]; first compound 0.4 µM) of 0.358. For the same cell line, the relative viability ([3]; first compound 4 µM) was 0.267, the relative viability ([4]; first compound 0.08 µM) was 0.92 and the relative viability ([4]; first compound 0.8 µM) was 1. It also gave a relative viability ([4]; first compound 2.53 µM) of 1.14 and a relative viability ([4]; first compound 8 µM) of 1.03.

Cell Line A-427 has a relative viability ([1]; first compound 0.04 µM) of 0.968, a relative viability ([1]; first compound 0.1265 µM) of 1.07 and a relative viability ([1]; first compound 0.4 µM) of 1. It also gave a relative viability ([1]; first compound 4 µM) of 0.885, a relative viability ([2]; first compound 0.04 µM) of 0.483 and a relative viability ([2]; first compound 0.1265 µM) of 0.666. It also gave a relative viability ([2]; first compound 0.4 µM) of 0.707, a relative viability ([2]; first compound 4 µM) of 0.506 and a relative viability ([3]; first compound 0.04 µM) of 0.88. For the same cell line, the relative viability ([3]; first compound 0.1265 µM) was 0.876, the relative viability ([3]; first compound 0.4 µM) was 0.953 and the relative viability ([3]; first compound 1.265 µM) was 0.73. The relative viability ([3]; first compound 4 µM) was 0.662, the relative viability ([4]; first compound 0.08 µM) was 1.12 and the relative viability ([4]; first compound 0.8 µM) was 1.15. For the same cell line, the relative viability ([4]; first compound 2.53 µM) was 0.971 and the relative viability ([4]; first compound 8 µM) was 0.978.
